# US20250122182A1 (Isosterix, Inc., priority 2023, published 2025)
# Target: Recombinant KAT6A/MOZ (488-778) protein (Homo sapiens (Human), UniProt Q92794)
# Test: KAT6A AlphaLISA Inhibition Screening Assay
# Type: biochemical
# Conditions: for inhibition at 1 µM: read-out: Average Kat6A % inhibition @ 1 μM, 1 μM test compound; for inhibition at 10 µM: read-out: Average Kat6A % inhibition @ 10 μM, 10 μM test compound
# Experimental: The Kat6a inhibitory activity of test compounds was determined using an Alpha Screen-based detection method. The assay reactions were conducted in a volume of 10 μL in Alpha Plate, White 384 well plate (cat #6008280, Perkin Elmer). The enzymatic reactions were performed in assay buffer pH 8.0 (50 mM Tris-HCl, 0.1 mM EDTA, 0.01% Tween-20, 1 mM Dithiothreitol, 0.1% BSA (fatty acid free) and 330 nM TSA (Trichostatin A)). 10 μL reaction volume consisting of 25 nM of Recombinant KAT6A/MOZ (488-778) protein (Active motif, Catalog #81223), 400 nM Acetyl coenzyme A (Catalog #A2056, Sigma), 200 nM of Histone H3 peptide [(amino acids 1-21), biotin-labeled (BPS Biosciences, Catalog #52011)]. Test compounds were screened at different doses starting with 10 μM, 3 fold dilution and 10 point Dose response curve. Enzyme and compounds solution were pre-incubated in assay plate for 60 or 10 min at room temperature then substrate and Acetyl coenzyme A solution were added to the plate. After addition, the plate was sealed with adhesive seals and incubated for 120 minutes at room temperature.
# After 120 minutes of incubation, […] of AlphaLISA anti-acetyl-Lysine acceptor beads (Perkin Elmer, Catalog #AL143C) were added to the plate and it was incubated for 60 minutes at room temperature. Then […] of Alpha Streptavidin donor beads (Perkin Elmer, Catalog #6760002S) were added to the plate which was further incubated for 60 minutes at room temperature. After incubation, the alpha signal was recorded by using Perkin Elmer Envision multi-mode reader. Percent inhibition of enzyme activity by test compounds were determined relative to vehicle control.
# Sequence of Recombinant KAT6A/MOZ (488-778) protein (Q92794 488-778): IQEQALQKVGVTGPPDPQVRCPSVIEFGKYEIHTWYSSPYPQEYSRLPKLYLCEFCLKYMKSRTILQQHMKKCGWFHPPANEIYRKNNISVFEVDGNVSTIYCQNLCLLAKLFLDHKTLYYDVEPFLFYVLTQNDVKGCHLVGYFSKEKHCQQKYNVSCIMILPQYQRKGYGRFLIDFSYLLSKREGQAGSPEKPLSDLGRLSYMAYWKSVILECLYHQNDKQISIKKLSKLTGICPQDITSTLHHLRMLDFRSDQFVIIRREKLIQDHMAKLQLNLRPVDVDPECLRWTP
Compound,inhibition at 1 µM [%],inhibition at 10 µM [%]
"C#CC(=O)NCc1ccc(Oc2cc(OC)c3c(NS(=O)(=O)c4cc(CC)ccc4OC)noc3c2)nc1 [Syn. Ex. 61, N-((6-((3-((5-ethyl-2-methoxyphenyl)sulfonamido)-4-methoxybenzo[d]isoxazol-6-yl)oxy)pyridin-3-yl)methyl)propiolamide]",60,100
"CCc1ccc(OCC(=O)O)c(S(=O)(=O)Nc2noc3cc(Cn4cc(CNC(=O)OC)cn4)cc(OC)c23)c1 [Syn. Ex. 62, 2-(4-ethyl-2-(N-(4-methoxy-6-((4-(((methoxycarbonyl)amino)methyl)-1H-pyrazol-1-yl)methyl)benzo[d]isoxazol-3-yl)sulfamoyl)phenoxy)acetic acid]",100,100
"CCc1ccc(OC)c(S(=O)(=O)Nc2noc3cc(Cn4cc(CNC(=O)OC)cn4)cc(OC(F)F)c23)c1 [Syn. Ex. 63, methyl ((1-((4-(difluoromethoxy)-3-((5-ethyl-2-methoxyphenyl)sulfonamido)benzo[d]isoxazol-6-yl)methyl)-1H-pyrazol 4yl)methyl)carbamate]",95,96
"CCc1ccc(OCCO)c(S(=O)(=O)Nc2noc3cc(Cn4cc(CNC(=O)OC)cn4)cc(OC)c23)c1 [Syn. Ex. 64, methyl ((1-((3-((5-ethyl-2-(2-hydroxyethoxy)phenyl)sulfonamido)-4-methoxybenzo[d]isoxazol-6-yl)methyl)-1H-pyrazol-4-yl)methyl)carbamate]",94,100
"C#CC(=O)NCc1cnn(Cc2cc(OC)c3c(NS(=O)(=O)c4cc(CC)ccc4OCCO)noc3c2)c1 [Syn. Ex. 65, N-((1-((3-((5-ethyl-2-(2-hydroxyethoxy)phenyl)sulfonamido)-4-methoxybenzo[d]isoxazol-6-yl)methyl)-1H-pyrazol-4-yl)methyl)propiolamide]",100,100
"CCc1ccc(OCC(=O)N2CCOCC2)c(S(=O)(=O)Nc2noc3cc(Cn4cc(CNC(=O)OC)cn4)cc(OC)c23)c1 [Syn. Ex. 66, methyl ((1-((3-((5-ethyl-2-(2-morpholino-2-oxoethoxy)phenyl)sulfonamido)-4-methoxybenzo[d]isoxazol-6-yl)methyl)-1H-pyrazol-4-yl)methyl)carbamate]",93,100
"C=C(F)C(=O)NCc1cnn(Cc2cc(OC)c3c(NS(=O)(=O)c4cc(CC)ccc4OCC(=O)O)noc3c2)c1 [Syn. Ex. 67, 2-(4-ethyl-2-(N-(6-((4-((2-fluoroacrylamido)methyl)-1H-pyrazol-1-yl)methyl)-4-methoxybenzo[d]isoxazol-3-yl)sulfamoyl)phenoxy)acetic acid]",100,100
"C=C(F)C(=O)NCc1cnn(Cc2cc(OC)c3c(NS(=O)(=O)c4cc(CC)ccc4OCC(=O)N4CCOCC4)noc3c2)c1 [Syn. Ex. 68, N-((1-((3-((5-ethyl-2-(2-morpholino-2-oxoethoxy)phenyl)sulfonamido)-4-methoxybenzo[d]isoxazol-6-yl)methyl)-1H-pyrazol-4-yl)methyl)-2-fluoroacrylamide]",96,100
"C#CC(=O)NCc1cnn(Cc2cc(OC)c3c(NS(=O)(=O)c4cc(CC)ccc4OCC#N)noc3c2)c1 [Syn. Ex. 69, N-((1-((3-((2-(cyanomethoxy)-5-ethylphenyl)sulfonamido)-4-methoxybenzo[d]isoxazol-6-yl)methyl)-1H-pyrazol-4-yl)methyl)propiolamide]",96,99
"C#CC(=O)NCc1cnn(Cc2cc(OC)c3c(NS(=O)(=O)c4cc(CC)ccc4OCc4nn[nH]n4)noc3c2)c1 [Syn. Ex. 70, N-((1-((3-((2-((2H-tetrazol-5-yl)methoxy)-5-ethylphenyl)sulfonamido)-4-methoxybenzo[d]isoxazol-6-yl)methyl)-1H-pyrazol-4-yl)methyl)propiolamide]",100,100
"CCc1ccc(OCc2nn[nH]n2)c(S(=O)(=O)Nc2noc3cc(Cn4cc(CNC(=O)OC)cn4)cc(OC)c23)c1 [Syn. Ex. 71, methyl ((1-((3-((2-((2H-tetrazol-5-yl)methoxy)-5-ethylphenyl)sulfonamido)-4-methoxybenzo[d]isoxazol-6-yl)methyl)-1H-pyrazol-4-yl)methyl)carbamate]",100,100
"C=C(F)C(=O)NCc1cnn(Cc2cc(OC)c3c(NS(=O)(=O)c4cc(CC)ccc4OCc4nn[nH]n4)noc3c2)c1 [Syn. Ex. 72, N-((1-((3-((2-((2H-tetrazol-5-yl)methoxy)-5-ethylphenyl)sulfonamido)-4-methoxybenzo[d]isoxazol-6-yl)methyl)-1H-pyrazol-4-yl)methyl)-2-fluoroacrylamide]",100,100
"C=C(F)C(=O)NCc1cnn(Cc2cc(OC)c3c(NS(=O)(=O)c4cc(CC)ccc4OCc4ncon4)noc3c2)c1 [Syn. Ex. 73, N-((1-((3-((2-((1,2,4-oxadiazol-3-yl)methoxy)-5-ethylphenyl)sulfonamido)-4-methoxybenzo[d]isoxazol-6-yl)methyl)-1H-pyrazol-4-yl)methyl)-2-fluoroacrylamide]",100,100
"CCc1ccc(OCc2ncon2)c(S(=O)(=O)Nc2noc3cc(Cn4cc(CNC(=O)OC)cn4)cc(OC)c23)c1 [Syn. Ex. 74, methyl ((1-((3-((2-((1,2,4-oxadiazol-3-yl)methoxy)-5-ethylphenyl)sulfonamido)-4-methoxybenzo[d]isoxazol-6-yl)methyl)-1H-pyrazol-4-yl)methyl)carbamate]",100,100
"CCc1ccc(OCCN)c(S(=O)(=O)Nc2noc3cc(Cn4cc(CNC(=O)OC)cn4)cc(OC)c23)c1 [Syn. Ex. 75, methyl ((1-((3-((2-(2-aminoethoxy)-5-ethylphenyl)sulfonamido)-4-methoxybenzo[d]isoxazol-6-yl)methyl)-1H-pyrazol-4-yl)methyl)carbamate]",59,92

# The next lines start with the values.
inhibition at 1 µM [%],inhibition at 10 µM [%],Compound
74,96,"C=C(F)C(=O)NCc1cnn(Cc2cc(OC)c3c(NS(=O)(=O)c4cc(CC)ccc4OCCN)noc3c2)c1 [Syn. Ex. 76, N-((1-((3-((2-(2-aminoethoxy)-5-ethylphenyl)sulfonamido)-4-methoxybenzo[d]isoxazol-6-yl)methyl)-1H-pyrazol-4-yl)methyl)-2-fluoroacrylamide]"
96,98,"CCc1ccc(OCCN2CCOC2=O)c(S(=O)(=O)Nc2noc3cc(Cn4cc(CNC(=O)OC)cn4)cc(OC)c23)c1 [Syn. Ex. 77, methyl ((1-((3-((5-ethyl-2-(2-(2-oxooxazolidin-3-yl)ethoxy)phenyl)sulfonamido)-4-methoxybenzo[d]isoxazol-6-yl)methyl)-1H-pyrazol-4-yl)methyl)carbamate]"
100,100,"C=C(F)C(=O)NCc1cnn(Cc2cc(OC)c3c(NS(=O)(=O)c4cc(CC)ccc4OCCN4CCOC4=O)noc3c2)c1 [Syn. Ex. 78, N-((1-((3-((5-ethyl-2-(2-(2-oxooxazolidin-3-yl)ethoxy)phenyl)sulfonamido)-4-methoxybenzo[d]isoxazol-6-yl)methyl)-1H-pyrazol-4-yl)methyl)-2-fluoroacrylamide]"
99,100,"C=C(F)C(=O)NCc1cnn(Cc2cc(OC)c3c(NS(=O)(=O)c4cc(CC)ccc4OCCNC(=O)OC)noc3c2)c1 [Syn. Ex. 79, methyl (2-(4-ethyl-2-(N-(6-((4-((2-fluoroacrylamido)methyl)-1H-pyrazol-1-yl)methyl)-4-methoxybenzo[d]isoxazol-3-yl)sulfamoyl)phenoxy)ethyl)carbamate]"
100,100,"C=C(F)C(=O)NCc1cnn(Cc2cc(OC)c3c(NS(=O)(=O)c4cc(CC)ccc4OCc4nc[nH]n4)noc3c2)c1 [Syn. Ex. 80, N-((1-((3-((2-((1H-1,2,4-triazol-3-yl)methoxy)-5-ethylphenyl)sulfonamido)-4-methoxybenzo[d]isoxazol-6-yl)methyl)-1H-pyrazol-4-yl)methyl)-2-fluoroacrylamide]"
91,99,"CCc1ccc(OCCNC(C)=O)c(S(=O)(=O)Nc2noc3cc(Cn4cc(CNC(=O)OC)cn4)cc(OC)c23)c1 [Syn. Ex. 81, methyl ((1-((3-((2-(2-acetamidoethoxy)-5-ethylphenyl)sulfonamido)-4-methoxybenzo[d]isoxazol-6-yl)methyl)-1H-pyrazol-4-yl)methyl)carbamate]"
94,99,"C=C(F)C(=O)NCc1cnn(Cc2cc(OC)c3c(NS(=O)(=O)c4cc(CC)ccc4OCCNC(C)=O)noc3c2)c1 [Syn. Ex. 82, N-((1-((3-((2-(2-acetamidoethoxy)-5-ethylphenyl)sulfonamido)-4-methoxybenzo[d]isoxazol-6-yl)methyl)-1H-pyrazol-4-yl)methyl)-2-fluoroacrylamide]"
